Experimental data: ChEMBL document CHEMBL5385907, “Proline-Hinged α-Helical Peptides Sensitize Gram-Positive Antibiotics, Expanding Their Physicochemical Properties to Be Used as Gram-Negative Antibiotics” (J Med Chem, 2024)
Blank lines part the entries; values can stand above or below the molecule they belong to. Activity calls are given as the source filed them. No cut-off for these calls is given here. Residues, ends and D or L forms follow the SMILES beside them.

Experiments:
[1] = test system: Klebsiella pneumoniae; assay: Antibacterial activity against Klebsiella pneumoniae ATCC 700603 assessed as inhibition of bacterial growth incubated for 18 hrs by two fold serial dilution assay; assay type: functional
[2] = test system: Acinetobacter baumannii; assay: Antibacterial activity against Acinetobacter baumannii ATCC 17978 assessed as inhibition of bacterial growth incubated for 18 hrs by two fold serial dilution assay; assay type: functional
[3] = test system: Lipopolysaccharide (LPS); assay: Displacement of BODIPY-TR-cadaverine from Escherichia coli O128:B12 LPS assessed as effective dose incubated for 1 hr by fluorescence microplate reader assay
[4] = Hemolytic activity in human blood assessed as hemolysis incubated for 6 hrs by microplate reader analysis; assay type: toxicity, tissue-based
[5] = test system: Escherichia coli; assay: Antibacterial activity against Escherichia coli ATCC 25922 assessed as inhibition of bacterial growth incubated for 18 hrs by two fold serial dilution assay; assay type: functional
[6] = Hydrophobicity of the compound assessed as retention time by reversed-phase HPLC analysis; assay type: physicochemical
[7] = test system: Acinetobacter baumannii; assay: Potentiation of fusidic acid induced antibacterial activity against Acinetobacter baumannii ATCC 17978 assessed as decrease in bacterial growth at 0.4 uM incubated for 18 hrs in presence of fusidic acid by two fold serial dilution assay; assay type: functional, organism-based
[8] = test system: Acinetobacter baumannii; assay: Potentiation of erythromycin induced antibacterial activity against Acinetobacter baumannii ATCC 17978 assessed as decrease in bacterial growth at 0.4 uM incubated for 18 hrs in presence of erythromycin by two fold serial dilution assay; assay type: functional, organism-based
[9] = test system: Escherichia coli; assay: Potentiation of novobiocin induced antibacterial activity against Escherichia coli ATCC 25922 assessed as decrease in bacterial growth at 0.4 uM incubated for 18 hrs in presence of novobiocin by two fold serial dilution assay; assay type: functional, organism-based
[10] = test system: Acinetobacter baumannii; assay: Potentiation of novobiocin induced antibacterial activity against Acinetobacter baumannii ATCC 17978 assessed as decrease in bacterial growth at 0.4 uM incubated for 18 hrs in presence of novobiocin by two fold serial dilution assay; assay type: functional, organism-based
[11] = test system: Escherichia coli; assay: Potentiation of erythromycin induced antibacterial activity against Escherichia coli ATCC 25922 assessed as decrease in bacterial growth at 0.4 uM incubated for 18 hrs in presence of erythromycin by two fold serial dilution assay; assay type: functional, organism-based
[12] = test system: Escherichia coli; assay: Potentiation of fusidic acid induced antibacterial activity against Escherichia coli ATCC 25922 assessed as decrease in bacterial growth at 0.4 uM incubated for 18 hrs in presence of fusidic acid by two fold serial dilution assay; assay type: functional, organism-based
[13] = test system: Klebsiella pneumoniae; assay: Potentiation of fusidic acid induced antibacterial activity against Klebsiella pneumoniae ATCC 700603 assessed as decrease in bacterial growth at 0.4 uM incubated for 18 hrs in presence of fusidic acid by two fold serial dilution assay; assay type: functional, organism-based
[14] = test system: Klebsiella pneumoniae; assay: Potentiation of erythromycin induced antibacterial activity against Klebsiella pneumoniae ATCC 700603 assessed as decrease in bacterial growth at 0.4 uM incubated for 18 hrs in presence of erythromycin by two fold serial dilution assay; assay type: functional, organism-based
[15] = test system: Klebsiella pneumoniae; assay: Potentiation of novobiocin induced antibacterial activity against Klebsiella pneumoniae ATCC 700603 assessed as decrease in bacterial growth at 0.4 uM incubated for 18 hrs in presence of novobiocin by two fold serial dilution assay; assay type: functional, organism-based
[16] = test system: Escherichia coli; assay: Potentiation of rifampicin induced antibacterial activity against NDM1-producing carbapenem-resistant Escherichia coli infected CD1 mouse sepsis model assessed as reduction in bacterial colony forming unit in blood at 10 mg/kg,SC administrated after 2 hrs of post-infection in presence of rifampicin; assay type: functional
[17] = test system: Escherichia coli; assay: Potentiation of rifampicin induced antibacterial activity against NDM1-producing carbapenem-resistant Escherichia coli infected CD1 mouse sepsis model assessed as reduction in bacterial colony forming unit in blood at 10 mg/kg,SC administrated after 6 hrs of post-infection in presence of rifampicin; assay type: functional
[18] = Nephrotoxicity in Sprague-Dawley rat assessed as increase in blood urea nitrogen level at 30 mg/kg,iv administration for 1 hr and measured after 25 hrs; assay type: toxicity, organism-based; conditions: in vivo, 26 h
[19] = Nephrotoxicity in Sprague-Dawley rat assessed as increase in creatinine level at 30 mg/kg,iv administration for 1 hr and measured after 25 hrs; assay type: toxicity, organism-based; conditions: in vivo, 26 h
[20] = test system: Escherichia coli; assay: Antibacterial activity against Escherichia coli ATCC 25922 assessed as change in membrane fluidity incubated for 1 hr by generalized polarization assay; assay type: functional, organism-based
[21] = test system: Escherichia coli; assay: Antibacterial activity against Escherichia coli ATCC 25922 assessed as bacterial growth inhibition incubated for 1 hr by propidium iodide staining based fluorescence assay; assay type: functional, organism-based

- MIC [1]: > 80 µM
- MIC [2]: > 80 µM
- ED50 [3]: inactive
- MIC [5]: > 80 µM
- Retention_time [6]: 13.7 min
Molecule: CCCCCCCC(=O)N[C@@H](CCCCN)C(=O)N[C@@H](CCCCN)C(=O)N[C@@H](C)C(=O)N[C@@H](C)C(=O)N[C@@H](CCCCN)C(=O)N[C@@H](C)C(=O)N[C@@H](C)C(=O)N[C@@H](CCCCN)C(=O)N[C@@H](CCCCN)C(=O)N1CCC[C@H]1C(=O)N[C@@H](C)C(=O)N[C@@H](CCCCN)C(=O)N[C@@H](C)C(=O)N[C@@H](C)C(=O)N[C@@H](CCCCN)C(N)=O (HELM PEPTIDE1{[CCCCCCCC(=O)[*:2]].K.K.A.A.K.A.A.K.K.P.A.K.A.A.K.[am]}$$$$V2.0)
- MHC10 [4]: > 160 µM

Molecule: Ac-KKLLALLKKPLKLLK-NH2
- MIC [1]: 80 µM
- Activity [7]: Active
- Activity [8]: Active
- Activity [9]: Active
- Activity [10]: Active
- Activity [11]: Active
- Activity [12]: Active
- Activity [13]: Active
- Activity [14]: Active
- MIC [2]: 20 µM
- Activity [15]: Active
- MHC10 [4]: > 160 µM
- MIC [5]: 80 µM
- Retention_time [6]: 19.4 min

- MIC [1]: > 80 µM
- MIC [2]: > 80 µM
- MIC [5]: > 80 µM
- Retention_time [6]: 16.8 min
Molecule: Ac-KKLLKLAKKPLKLLK-NH2
- Activity [7]: Active
- Activity [8]: Active
- Activity [9]: Active
- Activity [10]: Active
- Activity [11]: Active
- Activity [12]: Active
- Activity [13]: Active
- Activity [14]: Active
- Activity [15]: Active
- MHC10 [4]: > 160 µM

Molecule: Ac-KKLLKLLAKPLKLLK-NH2
- MIC [1]: > 80 µM
- Activity [7]: Active
- Activity [8]: Active
- Activity [9]: Active
- Activity [10]: Active
- Activity [11]: Active
- Activity [12]: Active
- Activity [13]: Active
- Activity [14]: Active
- MIC [2]: 40 µM
- Activity [15]: Active
- MHC10 [4]: > 160 µM
- MIC [5]: > 80 µM
- Retention_time [6]: 19.6 min

Molecule: Ac-KKLLKLLKAPLKLLK-NH2
- MIC [1]: > 80 µM
- Activity [7]: Active
- Activity [8]: Active
- Activity [9]: Active
- Activity [10]: Active
- Activity [11]: Active
- Activity [12]: Active
- Activity [13]: Active
- Activity [14]: Active
- MIC [2]: 20 µM
- Activity [15]: Active
- MHC10 [4]: > 160 µM
- MIC [5]: > 80 µM
- Retention_time [6]: 19.6 min

Molecule: Ac-KKLLKLLKKPAKLLK-NH2
- MIC [1]: > 80 µM
- Activity [7]: Active
- Activity [8]: Active
- Activity [9]: Active
- Activity [10]: Active
- Activity [11]: Active
- Activity [12]: Active
- Activity [13]: Active
- Activity [14]: Active
- MIC [2]: 80 µM
- Activity [15]: Active
- MHC10 [4]: > 160 µM
- MIC [5]: > 80 µM
- Retention_time [6]: 17.1 min

Molecule: Ac-KKLLKLLKKPLALLK-NH2
- MIC [1]: > 80 µM
- Activity [7]: Active
- Activity [8]: Active
- Activity [9]: Active
- Activity [10]: Active
- Activity [11]: Active
- Activity [12]: Active
- Activity [13]: Active
- Activity [14]: Active
- MIC [2]: 20 µM
- Activity [15]: Active
- MHC10 [4]: > 160 µM
- MIC [5]: > 80 µM
- Retention_time [6]: 19.6 min

Molecule: Ac-KKLLKLLKKPLKALK-NH2
- MIC [1]: > 80 µM
- Activity [7]: Active
- Activity [8]: Active
- Activity [9]: Active
- Activity [10]: Active
- Activity [11]: Active
- Activity [12]: Active
- Activity [13]: Active
- Activity [14]: Active
- MIC [2]: 40 µM
- Activity [15]: Active
- MHC10 [4]: > 160 µM
- MIC [5]: > 80 µM
- Retention_time [6]: 17.5 min

Molecule: Ac-KKLLKLLKKPLKLAK-NH2
- MIC [1]: > 80 µM
- Activity [7]: Active
- Activity [8]: Active
- Activity [9]: Active
- Activity [10]: Active
- Activity [11]: Active
- Activity [12]: Active
- Activity [13]: Active
- Activity [14]: Active
- MIC [2]: 80 µM
- Activity [15]: Active
- MHC10 [4]: > 160 µM
- MIC [5]: > 80 µM
- Retention_time [6]: 17.1 min

Molecule: Ac-KKLLKLLKKPLKLLA-NH2
- MIC [1]: > 80 µM
- Activity [7]: Active
- Activity [8]: Active
- Activity [9]: Active
- Activity [10]: Active
- Activity [11]: Active
- Activity [12]: Active
- Activity [13]: Active
- Activity [14]: Active
- MIC [2]: 2.5 µM
- Activity [15]: Active
- MHC10 [4]: > 160 µM
- MIC [5]: > 80 µM
- Retention_time [6]: 18.9 min

Molecule: Ac-KLLKLLKKPLKLLK-NH2
- MIC [1]: > 80 µM
- Activity [16]: >3 log10CFU
- MIC [2]: 80 µM
- Activity [17]: >3 log10CFU
- MHC10 [4]: > 160 µM
- MIC [5]: > 80 µM
- Retention_time [6]: 18.8 min

Molecule: COLISTIN
- Activity [18]: 30 mg/dL
- Activity [19]: 0.74 mg/dL

Molecule: POLYMYXIN B
- Activity [20]: Active
- Activity [21]: Active
